Data on 17 compounds can be found in patent publication US8022095B2, “Methods of treating headaches using 5-HT agonists in combination with long-acting NSAIDs” (Pozen, Inc., priority 1996, dated 2011).

Like-named read-outs stand apart in the source and are kept apart here.

For series [1] the following is noted: cited from earlier work; for lead time to peak plasma levels: list follows the words 'intramuscular routes will generally have shorter lead times to peak plasma levels'; for time of peak plasma concentration after oral administration: oral dosing; for half-life: pharmacokinetic / plasma half-life.
The subject of another series is migraine attack. As for the experimental part:
Headache relief at two hours was determined in a manner identical to that described above, but the relapse and sustained response rates were calculated based solely on a return of moderate or severe headache pain (i.e., no “rescue medication” protocol was used as a separate indicator of relapse).

In a further series the test system is migraine. Briefly: Comparison of MT 400, triptan alone, NSAID alone and placebo in migraine patients. The following applies: for % with nausea / % with phonophobia / % with photophobia / Number with nausea / Number with phonophobia / Number with photophobia: at 2 hours; for Number with nausea / Number with phonophobia / Number with photophobia / Sustained Response (Sustained Pain Response), number of subjects / Sustained Pain Free responders, number of subjects: N = 250 / 229 / 247; for patients with improvement from moderate or severe pain at baseline to mild or no pain: at two hours; for Sustained Response (Sustained Pain Response), percentage of subjects: initial pain response without return of pain for 24 hours after dosing; for Sustained Response (Sustained Pain Response), number of subjects: initial pain response without return of pain for 24 hours; for Sustained Pain Free responders, number of subjects: pain score 0 at 2 hours and from 2 to 24 hours without rescue; for therapeutic gain, Sustained Pain Free / therapeutic gain over placebo, sustained response / therapeutic gain over placebo, pain response: response rate minus placebo response; for therapeutic gain over placebo, sustained response: 24 hours; for therapeutic gain over placebo, pain response: pain response at two hours. The format is in vivo, human. As for the experimental part: In these experiments, a comparison was made between: patients administered triptan alone; patients administered NSAID alone; patients administered a combination of triptan and NSAID (“MT400”); and, in some cases, patients administered a placebo.
Sustained response was evaluated based upon the number of patients that experience an initial pain response without a return of pain for the 24 hours after dosing.
The most desirable outcome for the treatment of migraine is that the pain be eliminated quickly and not return. This outcome measure is termed Sustained Pain Free. Responders are defined as patients having a pain score of 0 at 2 hours and nothing more than 0 from 2 to 24 hours post dose without the need for rescue.
As migraine is a pathological complex characterized by unilateral headache, often accompanied by associated symptoms of nausea, photophobia and phonophobia, efficacy against these other parameters is important in evaluating the efficacy of a drug candidate.

For a further series, the target named is T1, COX-2 (Homo sapiens, UniProt P35354).
T1 sequence (P35354 18-604): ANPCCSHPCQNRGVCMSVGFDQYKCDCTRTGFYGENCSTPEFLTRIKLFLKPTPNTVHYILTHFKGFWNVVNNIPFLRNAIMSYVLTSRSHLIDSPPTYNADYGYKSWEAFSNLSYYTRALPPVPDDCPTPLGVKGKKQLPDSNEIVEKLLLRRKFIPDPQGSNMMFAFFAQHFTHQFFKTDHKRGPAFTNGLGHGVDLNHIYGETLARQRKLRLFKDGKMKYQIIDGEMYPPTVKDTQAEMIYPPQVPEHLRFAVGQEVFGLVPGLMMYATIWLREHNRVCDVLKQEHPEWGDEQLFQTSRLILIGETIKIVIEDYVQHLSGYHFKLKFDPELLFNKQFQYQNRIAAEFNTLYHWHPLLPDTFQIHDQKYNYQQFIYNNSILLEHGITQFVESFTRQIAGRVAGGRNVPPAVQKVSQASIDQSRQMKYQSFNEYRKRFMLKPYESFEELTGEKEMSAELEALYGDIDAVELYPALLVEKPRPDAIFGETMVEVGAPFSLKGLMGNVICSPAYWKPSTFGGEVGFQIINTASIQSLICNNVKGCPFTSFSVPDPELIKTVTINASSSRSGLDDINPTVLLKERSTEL
The settings on record: reported (Feldman 2000; Sengupta 1999); cited from earlier work.

A further series deals with migraine attacks. Briefly: Open-label, randomized out-patient study, 16 migraine patients with high relapse rate, two successive migraine attacks. The format is in vivo, human. As for the experimental part:
Headache pain was assessed by the patients on a 4-point scale (no pain, mild pain, moderate pain, or severe pain). Each patient was treated for two migraine attacks of moderate or severe intensity at baseline and pain scores were recorded every 30 minutes for the first two hours following dosing and at 3, 4, 6, 12 and 24 hours post-dose. “Relapse” was defined to occur in those patients who responded with an adequate reduction in headache pain (moderate or severe at baseline, reduced to no pain or mild pain) at 2 hours after administration and, in whom, over the next 22 hours either: (a) headache pain returned to moderate or severe intensity; or (b) “rescue medication” was required to treat the recurrent headache pain.

Consider `COc1ccc2c(c1)c(CC(=O)O)c(C)n2C(=O)c1ccc(Cl)cc1` [indomethacin], for which the “lead time to peak plasma levels” value in series [1] was 1 to 4 h.

Take `Cc1onc(-c2ccccc2)c1-c1ccc(S(N)(=O)=O)cc1` [valdecoxib]: in series [1], the “time of peak plasma concentration after oral administration” value (shortened to “time of peak plasma concentration”) is 2 to 3 h and the half-life (usually the time in which the quantity being followed falls by half) is 8 to 11 h.

In turn, `COc1ccc2cc([C@H](C)C(=O)O)ccc2c1` [naproxen sodium] came in with a relapse rate in the series with migraine attack (500 mg naproxen sodium alone, based solely on return of moderate or severe headache pain) of 26%.

Turning to `Cc1ccc(Cl)c(Nc2ccccc2C(=O)O)c1Cl` [meclofenamate, Meclofenamate sodium], the “lead time to peak plasma levels” value in series [1] is 0.5 to 1 h.

As for `COc1ccc2cc(CCC(C)=O)ccc2c1` [nabumetone], in series [1], the “lead time to peak plasma levels” value was 2.5 to 4 h and the half-life was 22 to 30 h.

Consider `O=C(O)CCc1nc(-c2ccccc2)c(-c2ccccc2)o1` [oxaprozin], for which the half-life in series [1] and in series [1] (listed as Oxaprozin) was 42 to 50 h in each case.

As to `COc1ccc2cc([C@H](C)C(=O)O)ccc2c1` [naproxen], the sustained response rate with migraine attack (responds initially and no relapse in twenty-four hours) came out at 46%. Besides, in the series with migraine, the “% with nausea” value is given as “(31.2%)”, the “% with phonophobia” value is on record as “(47.8%)”, the “% with photophobia” value was “(57.5%)” and the Number with nausea was determined as 77. Further, in the series on migraine, the Number with phonophobia is 118; the Number with photophobia worked out at 142; the “patients with improvement from moderate or severe pain at baseline to mild or no pain” value came out at 46%; the “Sustained Response (Sustained Pain Response), percentage of subjects” value was determined as 24.7%. In the series with migraine, the “Sustained Response (Sustained Pain Response), number of subjects” value was 61; the “Sustained Pain Free responders, number of subjects” value is given as 29; the “therapeutic gain, Sustained Pain Free” value is reported as 6.7%; the “therapeutic gain over placebo, sustained response” value was 8%. Moreover, the “therapeutic gain over placebo, pain response” value in the series on migraine came out at 19%. Further, the “Sustained Response (Sustained Pain Response), percentage of subjects” value in the series on migraine (listed as Naproxen) is on record as “(24.7%)”. Also, the “Sustained Pain Free responders, percentage of subjects” value in the series with migraine (pain score 0 at 2 hours and nothing more than 0 from 2 to 24 hours post dose without rescue) is “(11.7%)”.

In the case of `CS(=O)(=O)c1ccc(C2=C(c3ccccc3)C(=O)OC2)cc1` [rofecoxib], in series [1], the “time of peak plasma concentration” value was 2 to 3 h and the half-life result is on record as “about 17 hours”.

As to `CN1C(C(=O)Nc2ccccn2)=C(O)c2sc(Cl)cc2S1(=O)=O` [lornoxicam], in series [1], the “time of peak plasma concentration” value was “approximately two” and the half-life entry is on record as “about 4 hours”. The half-life entry in series [1] (listed as Lornoxicam) is recorded as “approximately 4 hours”.

With `Cc1cccc(Nc2ccccc2C(=O)O)c1C` [mefenamic acid], the half-life result in series [1] is recorded as “up to 4 hours”. In addition, at COX-2, the “specificity for COX-2” value is recorded as “highly specific for COX-2”.

Take `O=C(c1ccccc1)c1ccc2n1CCC2C(=O)O` (stereo not shown) [ketorolac]: the half-life in series [1] was 8 to 9 h.

`CN1C(C(=O)Nc2ccccn2)=C(O)c2ccccc2S1(=O)=O` [piroxicam]: the “time of dosing until steady state plasma concentrations are reached” value in series [1] (in vivo) was 7 to 12 days.

On to `CNS(=O)(=O)Cc1ccc2[nH]cc(CCN(C)C)c2c1` [Imitrex, sumatriptan succinate], for which, in the series on migraine, the “% with nausea” value is reported as “(31.9%)”, the “% with phonophobia” value was “(44.5%)”, the “% with photophobia” value was “(50.2%)” and the Number with nausea was found to be 73. In addition, in the series on migraine, the Number with phonophobia worked out at 102; the Number with photophobia is on record as 115; the “patients with improvement from moderate or severe pain at baseline to mild or no pain” value is recorded as 49%; the “Sustained Response (Sustained Pain Response), number of subjects” value stood at 66. Also, in the series with migraine, the “Sustained Pain Free responders, number of subjects” value turned out to be 25; the “therapeutic gain, Sustained Pain Free” value was determined as 5.9%; the “therapeutic gain over placebo, sustained response” value amounted to 12%; the “therapeutic gain over placebo, pain response” value is 22%.

Take `CNS(=O)(=O)Cc1ccc2[nH]cc(CCN(C)C)c2c1` [sumatriptan]: the “24 hour sustained response” value with migraine attacks (% of 16 patients, relapse criteria including rescue medication) is reported as 44%. Moreover, the “number of patients with 24 hour sustained response” value in the series on migraine attacks (of 16 patients, relapse criteria including rescue medication) is “seven”. For the same compound, the relapse rate in the series with migraine attacks (re-analysed, based solely on return of moderate or severe headache pain) worked out at 40%. The “relapse rate of responding patients” value in the series with migraine attacks (relapse = return of moderate or severe pain or rescue medication within 22 hours after the 2 hour response) is given as 46%. The compound also had a sustained response rate in the series on migraine attacks (responds initially and no relapse in twenty-four hours, criteria of the second study) of 56%. Further, the peak serum concentration is 1 to 300 ng/mL in series [1] (oral doses of about 1-300 mg) and 1 to 150 ng/mL in series [1] (subcutaneous injections of about 1 to 8 mg).

`CCc1cccc2c3c([nH]c12)C(CC)(CC(=O)O)OCC3` (stereo not shown) [etodolac]: the half-life result in series [1] was “about 7 hours”. Besides, the “specificity for COX-2” value on COX-2 is “highly specific for COX-2”.

Consider `Cc1ccc(-c2cc(C(F)(F)F)nn2-c2ccc(S(N)(=O)=O)cc2)cc1` [Celecoxib, celecoxib], for which, in series [1], the “time of peak plasma concentration” value is on record as “approximately 3 hours” and the half-life entry is reported as “approximately 11 hours”.

Regarding `CC(C(=O)O)c1ccc(-c2ccccc2)c(F)c1` (stereo not shown) [flurbiprofen], in series [1], the half-life entry is listed as “about 6 hours”.
